Legend:
human ALX receptor = target: T1, human ALX receptor (Homo sapiens, UniProt P25090); assay: Intracellular calcium measurements (FLIPR), agonistic activity in HEK293-hALXR-Gα16 cells; format: cell-based; conditions: Fluo-4 calcium FLIPR, normalized to WKYMVm 10 nM
T1 construct: expressed in transfected cells; host or cells: HEK293 (HEK293-hALXR-Gα16)
T1 sequence (P25090 1-351): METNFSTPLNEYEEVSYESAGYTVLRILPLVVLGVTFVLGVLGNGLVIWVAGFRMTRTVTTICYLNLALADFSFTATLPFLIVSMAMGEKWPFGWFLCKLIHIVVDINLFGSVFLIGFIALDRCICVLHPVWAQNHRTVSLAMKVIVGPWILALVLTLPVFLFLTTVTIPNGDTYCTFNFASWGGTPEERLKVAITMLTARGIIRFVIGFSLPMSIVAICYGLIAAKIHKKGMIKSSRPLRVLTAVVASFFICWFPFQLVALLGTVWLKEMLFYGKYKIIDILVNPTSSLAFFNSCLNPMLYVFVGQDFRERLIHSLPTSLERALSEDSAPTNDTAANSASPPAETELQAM
Summary of the method: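 HEK293 cells expressing hALXR and Gα16 were loaded with 1 μM Fluo-4 AM and 20 mM HEPES for 60 min at 37°C, then exposed to serially diluted compound. FLIPR fluorescence was read at ex 488/em 540 nm. Baseline-subtracted peak responses were normalized to 10 nM WKYMVm.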

human FPRL2 = target: T2, human FPRL2 (Homo sapiens, UniProt P25089); assay: Intracellular calcium measurements (FLIPR), agonistic activity in HEK293-hFPRL2-Gα16 cells; format: cell-based; conditions: Fluo-4 calcium FLIPR, normalized to GLY14-Humanin 100 nM
T2 construct: expressed in transfected cells; host or cells: HEK293 (HEK293-hFPRL2-Gα16)
T2 sequence (P25089 1-353): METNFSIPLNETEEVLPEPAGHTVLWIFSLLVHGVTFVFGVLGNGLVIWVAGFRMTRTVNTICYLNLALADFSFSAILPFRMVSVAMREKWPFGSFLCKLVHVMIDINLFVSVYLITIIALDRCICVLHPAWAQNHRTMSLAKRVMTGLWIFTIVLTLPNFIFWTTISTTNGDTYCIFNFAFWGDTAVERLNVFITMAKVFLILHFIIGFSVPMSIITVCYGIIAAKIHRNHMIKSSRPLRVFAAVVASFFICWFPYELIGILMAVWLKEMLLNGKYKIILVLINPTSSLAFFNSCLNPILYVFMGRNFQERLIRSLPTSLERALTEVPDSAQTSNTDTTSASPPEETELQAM
Summary of the method: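 Peak values after baseline subtraction are expressed relative to 100 nM Gly14-Humanin; compounds diluted in assay buffer from 10 mM DMSO stocks.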

| Structure (SMILES) | EC50 (human ALX receptor) [nM] | EC50 (human FPRL2) [nM] |
| --- | --- | --- |
| CCN(CC)CCCCNC(=O)[C@H]1[C@H](C(=O)NCc2nc(C(C)=O)cs2)[C@@H]2C=C[C@H]1C21CC1 (racemic) [Example 262, (5R*)—N^5-(4-Acetyl-thiazol-2-yl-methyl)-(6R*)—N^6-(4-diethylamino-butyl)-(4S*,7R*)-[4,7-ethenylene-spiro[2.4]heptane]-5,6-dicarboxamide] | 97 | 106 |
| CCOCCCNC(=O)[C@H]1[C@H](C(=O)NCc2ccc(Br)cc2)[C@@H]2C=C[C@H]1C21CC1 (racemic) [Example 263, (5R*)—N^5-(4-Bromophenyl-methyl)-(6R*)—N^6-(3-ethoxy-propyl)-(4S*,7R*)-[4,7-ethenylene-spiro[2.4]heptane]-5,6-dicarboxamide] | 899 | 4460 |
| CC(=O)c1csc(CNC(=O)[C@H]2[C@H](C(=O)NCCCN3CCCC3)[C@H]3C=C[C@@H]2C32CC2)n1 (racemic) [Example 264, (5R*)—N^5-(4-Acetyl-thiazol-2-yl-methyl)-(6R*)—N^6-(3-pyrrolidino-propyl)-(4S*,7R*)-[4,7-ethenylene-spiro[2.4]heptane]-5,6-dicarboxamide] | 140 | 835 |
| CN1CCN(CCCNC(=O)[C@H]2[C@H](C(=O)Nc3ncc(Br)s3)[C@@H]3C=C[C@H]2C32CC2)CC1 (racemic) [Example 265, (5R*)—N^5-(5-Bromothiazol-2-yl)-(6R*)—N^6-(3-(4-methylpiperazin-1-yl)-propyl)-(4S*,7R*)-[4,7-ethenylene-spiro[2.4]heptane]-5,6-dicarboxamide] | 49 | 462 |
| CC(=O)c1csc(CNC(=O)[C@H]2[C@H](C(=O)NCCN(C)C)[C@H]3C=C[C@@H]2C32CC2)n1 (racemic) [Example 266, (5R*)—N^5-(4-Acetyl-thiazol-2-yl-methyl)-(6R*)—N^6-(2-dimethylamino-ethyl)-(4S*,7R*)-[4,7-ethenylene-spiro[2.4]heptane]-5,6-dicarboxamide] | 65 | 1210 |
| CC(=O)c1csc(CNC(=O)[C@H]2[C@H](C(=O)NCCCN(C)C)[C@H]3C=C[C@@H]2C32CC2)n1 (racemic) [Example 267, (5R*)—N^5-(4-Acetyl-thiazol-2-yl-methyl)-(6R*)—N^6-(3-dimethylamino-propyl)-(4S*,7R*)-[4,7-ethenylene-spiro[2.4]heptane]-5,6-dicarboxamide] | 288 | 15300 |
| CC(=O)c1csc(CNC(=O)[C@H]2[C@H](C(=O)NCCCN3CCN(C)CC3)[C@H]3C=C[C@@H]2C32CC2)n1 (racemic) [Example 268, (5R*)—N^5-(4-Acetyl-thiazol-2-yl-methyl)-(6R*)—N^6-(3-(4-methylpiperazin-1-yl)-propyl)-(4S*,7R*)-[4,7-ethenylene-spiro[2.4]heptane]-5,6-dicarboxamide] | 477 | 22900 |
| CC(=O)c1csc(CNC(=O)[C@H]2[C@H](C(=O)NCCN3CCNC3=O)[C@H]3C=C[C@@H]2C32CC2)n1 (racemic) [Example 269, (5R*)—N^5-(4-Acetyl-thiazol-2-yl-methyl)-(6R*)—N^6-((2-imidazolidin-2-on)-1-yl-ethyl)-(4S*,7R*)-[4,7-ethenylene-spiro[2.4]heptane]-5,6-dicarboxamide] | 82 | 3550 |
| CCN(CC)CCCCNC(=O)[C@H]1[C@H](C(=O)Nc2ncc(Br)s2)[C@@H]2C=C[C@H]1C21CC1 (racemic) [Example 270, (5R*)—N^5-(5-Bromothiazol-2-yl)-(6R*)—N^6-(4-diethylamino-butyl)-(4S*,7R*)-[4,7-ethenylene-spiro[2.4]heptane]-5,6-dicarboxamide] | 54 | 396 |
| O=C(NCCF)[C@H]1[C@H](C(=O)NCc2ccc(Br)cc2)[C@@H]2C=C[C@H]1C21CC1 (racemic) [Example 271, (5R*)—N^5-(4-Bromophenyl-methyl)-(6R*)—N^6-(2-fluoroethyl)-(4S*,7R*)-[4,7-ethenylene-spiro[2.4]heptane]-5,6-dicarboxamide] | 673 | > 25000 |
| CN1CCN(CCCNC(=O)[C@H]2[C@H](C(=O)NCc3ccc(Br)cc3)[C@@H]3C=C[C@H]2C32CC2)CC1 (racemic) [Example 273, (5R*)—N^5-(4-Bromophenyl-methyl)-(6R*)—N^6-(3-(4-methylpiperazin-1-yl)-propyl)-(4S*,7R*)-[4,7-ethenylene-spiro[2.4]heptane]-5,6-dicarboxamide] | 213 | 432 |
| CN(C)CCNC(=O)[C@H]1[C@H](C(=O)NCc2ccc(Br)cc2)[C@@H]2C=C[C@H]1C21CC1 (racemic) [Example 274, (5R*)—N^5-(4-Bromophenyl-methyl)-(6R*)—N^6-(2-dimethylamino-ethyl)-(4S*,7R*)-[4,7-ethenylene-spiro[2.4]heptane]-5,6-dicarboxamide] | 290 | 1170 |
| O=C(NCCN1CCNC1=O)[C@H]1[C@H](C(=O)NCc2ccc(Br)cc2)[C@@H]2C=C[C@H]1C21CC1 (racemic) [Example 275, (5R*)—N^5-(4-Bromophenyl-methyl)-(6R*)—N^6-((2-imidazolidin-2-on)-1-yl-ethyl)-(4S*,7R*)-[4,7-ethenylene-spiro[2.4]heptane]-5,6-dicarboxamide] | 181 | 7040 |
| COCCNC(=O)[C@H]1[C@H](C(=O)Nc2ncc(Br)s2)[C@@H]2C=C[C@H]1C21CC1 (racemic) [Example 276, (5R*)—N^5-(5-Bromothiazol-2-yl)-(6R*)—N^6-(2-methoxy-ethyl)-(4S*,7R*)-[4,7-ethenylene-spiro[2.4]heptane]-5,6-dicarboxamide] | 44 | > 25000 |
| CN(C)CCCNC(=O)[C@H]1[C@H](C(=O)Nc2ncc(Br)s2)[C@@H]2C=C[C@H]1C21CC1 (racemic) [Example 277, (5R*)—N^5-(5-Bromothiazol-2-yl)-(6R*)—N^6-(3-dimethylamino-propyl)-(4S*,7R*)-[4,7-ethenylene-spiro[2.4]heptane]-5,6-dicarboxamide] | 61 | 2010 |
| CC(=O)c1csc(CNC(=O)[C@H]2[C@H](C(=O)NCCCN)[C@H]3C=C[C@@H]2C32CC2)n1 (racemic) [Example 299, (5R*)—N^5-(4-Acetyl-thiazol-2-yl-methyl)-(6R*)—N^6-(3-amino-propyl)-(4S*,7R*)-[4,7-ethenylene-spiro[2.4]heptane]-5,6-dicarboxamide] | 273 | 359 |
| CC(=O)c1csc(CNC(=O)[C@H]2[C@H](C(=O)NCC3CCNCC3)[C@H]3C=C[C@@H]2C32CC2)n1 (racemic) [Example 300, (5R*)—N^5-(4-Acetyl-thiazol-2-yl-methyl)-(6R*)—N^6-(piperidin-4-yl-methyl)-(4S*,7R*)-[4,7-ethenylene-spiro[2.4]heptane]-5,6-dicarboxamide] | 384 | 1820 |
| CNCCNC(=O)[C@H]1[C@H](C(=O)Nc2ncc(Br)s2)[C@@H]2C=C[C@H]1C21CC1 (racemic) [Example 301, (5R*)—N^5-(5-Bromo-thiazol-2-yl)-(6R*)—N^6-(2-methylamino-ethyl)-(4S*,7R*)-[4,7-ethenylene-spiro[2.4]heptane]-5,6-dicarboxamide] | 98 | 2700 |
| NCCCCCNC(=O)[C@H]1[C@H](C(=O)Nc2ncc(Br)s2)[C@@H]2C=C[C@H]1C21CC1 (racemic) [Example 302, (5R*)—N^5-(5-Bromo-thiazol-2-yl)-(6R*)—N^6-(5-amino-pentyl)-(4S*,7R*)-[4,7-ethenylene-spiro[2.4]heptane]-5,6-dicarboxamide] | 1.3 | 543 |
| NCc1ccc(CNC(=O)[C@H]2[C@H](C(=O)Nc3ncc(Br)s3)[C@@H]3C=C[C@H]2C32CC2)cc1 (racemic) [Example 303, (5R*)—N^5-(5-Bromo-thiazol-2-yl)-(6R*)—N^6-(4-(aminomethyl)phenyl-methyl)-(4S*,7R*)-[4,7-ethenylene-spiro[2.4]heptane]-5,6-dicarboxamide] | 45 | 1340 |
| CC(C)(CN)CNC(=O)[C@H]1[C@H](C(=O)Nc2ncc(Br)s2)[C@@H]2C=C[C@H]1C21CC1 (racemic) [Example 304, (5R*)—N^5-(5-Bromo-thiazol-2-yl)-(6R*)—N^6-(2,2-dimethyl-3-amino-propyl)-(4S*,7R*)-[4,7-ethenylene-spiro[2.4]heptane]-5,6-dicarboxamide] | 12 | 1630 |

— US8563714B2, “Bridged spiro [2.4] heptane derivatives as ALX receptor and/or FPRL2 agonists” (Actelion Pharmaceuticals Ltd., priority 2009, dated 2013)
